Measurements: US6566129B1, “Transformed cells useful for the control of pests” (University of Florida Research Foundation, Inc., priority 1999, dated 2003)
Square brackets hold non-standard residues; d marks the D form. Ends that are not written are not given here. Peptide text beside a SMILES is read from it.

Legend:
Format in all cases: in vivo
Aedes aegypti larvae [1] = assay: Effect of TMOF and its analogue peptides on mosquito larvae (feeding, LD50); conditions: newly hatched larvae on autoclaved yeast 1 mg/ml, microtiter plates, 7 days
Source text: TMOF can traverse the gut epithelium, enter the hemolymph and bind a gut receptor (Borovsky, D. and F. Mahmood (1995) “Feeding the mosquito Aedes aegypti with TMOF and its analogs; effect on trypsin biosynthesis and egg development,” Regulatory Peptides57:273-281; Borovsky, et al. (1994) “Characterization and localization of mosquito-gut receptors for trypsin modulating oostatic factor using complementary peptide immunochemistry” FASEB J. 8:350-355.). […] To find out if truncated TMOF peptides have an effect on larval growth and development, a series of peptides were synthesized and tested by feeding them to mosquito larvae at concentrations of 0 to 5.0 mg/ml (Table 3). Individual, newly hatched Aedes aegypti larvae were maintained in separate microtiter wells on a diet of autoclaved yeast (1 mg/ml). The diet was supplemented with TMOF peptides (Table 3). An identical number of larvae maintained on yeast served as a control. […] All control groups survived and larval growth and development was normal. Since larvae swallow only a small portion of the yeast particles that adsorbed the peptides, it is assumed that approximately 1 to 20 ng are taken orally at the high concentrations.

Aedes aegypti larvae [2] = assay: Effect of feeding TMOF-R analogues on Aedes aegypti larvae (LC50); conditions: fed in microtiter plates with yeast particles for 5 to 6 days; read-out: LC50 (mM ± S.E.M.)
Protocol: TMOF analogues (5 to 8 amino acids in length, and polymers of these analogues) in which Arg was added at the C-terminus were evaluated to determine their effect on larval growth and development. A series of analogues were synthesized and tested by feeding them to mosquito larvae at concentrations of (0.5 to 5.0 mg/ml; Table 4). Concentrations of 2.0 to 0.065 mg/ml were used to feed mosquito larvae and calculate the Lethal Dose at 50% mortality (LD50; Table 4) of the TMOF analogues. […] In both cases larval death and trypsin biosynthesis inhibition was noted (Table 4 and 5). […] The advantage of using short analogues connected by Arg is that they can be digested in the gut into short TMOF analogues that can penetrate the midgut much faster than longer analogues.
Individual, newly hatched Aedes aegypti larvae were maintained in separate microtiter wells on a diet of autoclaved yeast (1 mg/ml). The diet was supplemented with TMOF analogues (Table 4). An identical number of larvae were maintained on yeast served as a control. […] All control groups survived and larval growth and development were normal. Larvae that were fed TMOF analogues had increased mortality, particularly when the larvae where fed the concentrations of the analogues higher than 2 mg/ml (Table 4).
Since larvae swallow only a small portion of the yeast particles that adsorbed the analogues it is assumed that approximately I to 20 ng are taken orally at the high concentrations. Using the various concentrations a lethal concentration that caused 50% mortality (LC50) for the mosquito larvae was calculated (Table 4). The results presented in Table 4 clearly indicate that the short TMOF-R analogues are very effective, especially the (DPAR)4 (SEQ ID NO. 61) polymer that is broken into 4 DPARs (SEQ ID NO. 60) in the gut.

trypsin biosynthesis = assay: Effect of injected TMOF-R analogues on trypsin biosynthesis in Heliothis virescens (BApNA); conditions: 2nd instar larvae, 24 hours after injection
Protocol: Individual second instar larvae of H. virescens were injected with TMOF-R analogues (10 to 0.25 μg per larva) and maintained in separate plastic cups on artificial diet. Twenty-four hours after the injections 3 groups of larvae (3 per group) were assayed for trypsin biosynthesis using BApNA (trypsin specific substrate; Table 5).

C[C@H](NC(=O)[C@@H]1CCCN1C(=O)[C@H](CC(=O)O)NC(=O)[C@H](N)Cc1ccc(O)cc1)C(=O)N1CCC[C@H]1C(=O)O [(D)YDPAP] (H-[dY]DPAP-OH; N-terminus and C-terminus assumed)
LD50 mM ± S.E.M. (Aedes aegypti larvae [1]): 0.56 ± 0.03 mM

N[C@H](Cc1ccc(O)cc1)C(=O)N[C@@H](CC(=O)O)C(=O)N1CCC[C@H]1C(=O)O [(D)YDP] (H-[dY]-Asp-Pro-OH; N-terminus and C-terminus assumed)
LD50 mM ± S.E.M. (Aedes aegypti larvae [1]): 0.51 ± 0.05 mM

C[C@H](N)C(=O)N[C@@H](C)C(=O)N1CCC[C@H]1C(=O)O [AAP] (H-Ala-Ala-Pro-OH; N-terminus and C-terminus assumed)
LD50 mM ± S.E.M. (Aedes aegypti larvae [1]): 1.08 ± 0.07 mM

C[C@H](N)C(=O)N[C@@H](CC(=O)O)C(=O)N1CCC[C@H]1C(=O)O [ADP] (H-Ala-Asp-Pro-OH; N-terminus and C-terminus assumed)
LD50 mM ± S.E.M. (Aedes aegypti larvae [1]): >6.6 mM

C[C@H](N)C(=O)N1CCC[C@H]1C(=O)N[C@@H](C)C(=O)O [APA] (H-Ala-Pro-Ala-OH; N-terminus and C-terminus assumed)
LD50 mM ± S.E.M. (Aedes aegypti larvae [1]): 1.0 ± 0.07 mM

C[C@H](NC(=O)[C@H](C)NC(=O)[C@@H](N)CC(=O)O)C(=O)O [DAA] (H-Asp-Ala-Ala-OH; N-terminus and C-terminus assumed)
LD50 mM ± S.E.M. (Aedes aegypti larvae [1]): 0.91 ± 0.06 mM

C[C@H](NC(=O)[C@@H]1CCCN1C(=O)[C@@H](N)CC(=O)O)C(=O)N[C@@H](CCCNC(=N)N)C(=O)O [DPAR] (H-DPAR-OH)
LC50 (Aedes aegypti larvae [2]): 0.46 ± 0.014 mM
Inhibition (% ± S.E.M.) of trypsin biosynthesis (trypsin biosynthesis; 1 μg/injection): 17 ± 2%
Inhibition (% ± S.E.M.) of trypsin biosynthesis (trypsin biosynthesis; 10 μg/injection): 100%

C[C@H](NC(=O)[C@@H]1CCCN1C(=O)[C@@H](N)CC(=O)O)C(=O)O [DPA] (H-Asp-Pro-Ala-OH)
LD50 mM ± S.E.M. (Aedes aegypti larvae [1]): 0.4 ± 0.03 mM

N[C@@H](CC(=O)O)C(=O)N[C@@H](Cc1ccc(O)cc1)C(=O)N1CCC[C@H]1C(=O)O [DYP] (H-Asp-Tyr-Pro-OH; N-terminus and C-terminus assumed)
LD50 mM ± S.E.M. (Aedes aegypti larvae [1]): 1.27 ± 0.17 mM

N[C@@H](CC(=O)O)C(=O)N[C@@H](Cc1ccc(O)cc1)C(=O)O [DY] (H-Asp-Tyr-OH; N-terminus and C-terminus assumed)
LD50 mM ± S.E.M. (Aedes aegypti larvae [1]): 3.0 ± 0.8 mM

C[C@H](NC(=O)[C@@H](N)Cc1ccccc1)C(=O)N1CCC[C@H]1C(=O)O [FAP] (H-Phe-Ala-Pro-OH; N-terminus and C-terminus assumed)
LD50 mM ± S.E.M. (Aedes aegypti larvae [1]): 3.8 ± 0.23 mM

N[C@@H](Cc1ccccc1)C(=O)N[C@@H](CC(=O)O)C(=O)N1CCC[C@H]1C(=O)O [FDP] (H-Phe-Asp-Pro-OH; N-terminus and C-terminus assumed)
LD50 mM ± S.E.M. (Aedes aegypti larvae [1]): 1.98 ± 0.6 mM

N[C@@H](Cc1ccccc1)C(=O)N[C@@H](CO)C(=O)N1CCC[C@H]1C(=O)O [FSP] (H-Phe-Ser-Pro-OH; N-terminus and C-terminus assumed)
LD50 mM ± S.E.M. (Aedes aegypti larvae [1]): 2.3 ± 0.13 mM

C[C@H](NC(=O)[C@H](C)NC(=O)[C@@H]1CCCN1)C(=O)O [PAA] (H-Pro-Ala-Ala-OH; N-terminus and C-terminus assumed)
LD50 mM ± S.E.M. (Aedes aegypti larvae [1]): 2.4 ± 0.34 mM

C[C@H](NC(=O)[C@@H]1CCCN1)C(=O)N1CCC[C@H]1C(=O)O [PAP] (H-Pro-Ala-Pro-OH; N-terminus and C-terminus assumed)
LD50 mM ± S.E.M. (Aedes aegypti larvae [1]): 3.17 ± 0.14 mM

C[C@H](NC(=O)[C@@H]1CCCN1C(=O)[C@@H](CC(=O)O)NC(=O)[C@@H](N)Cc1ccc(O)cc1)C(=O)N1CCC[C@H]1C(=O)O [Y(D)DPAP] (H-Y[dD]PAP-OH; N-terminus and C-terminus assumed)
LD50 mM ± S.E.M. (Aedes aegypti larvae [1]): 1.2 ± 0.3 mM

N[C@@H](Cc1ccc(O)cc1)C(=O)N[C@H](CC(=O)O)C(=O)N1CCC[C@H]1C(=O)O [Y(D)DP] (H-Tyr-[dD]-Pro-OH; N-terminus and C-terminus assumed)
LD50 mM ± S.E.M. (Aedes aegypti larvae [1]): 0.28 ± 0.01 mM

C[C@H](NC(=O)[C@@H](N)Cc1ccc(O)cc1)C(=O)N1CCC[C@H]1C(=O)O [YAP] (H-Tyr-Ala-Pro-OH; N-terminus and C-terminus assumed)
LD50 mM ± S.E.M. (Aedes aegypti larvae [1]): 2.3 ± 0.5 mM

C[C@H](NC(=O)[C@H](CC(=O)O)NC(=O)[C@@H](N)Cc1ccc(O)cc1)C(=O)O [YDA] (H-Tyr-Asp-Ala-OH; N-terminus and C-terminus assumed)
LD50 mM ± S.E.M. (Aedes aegypti larvae [1]): 1.6 ± 0.13 mM

N[C@@H](Cc1ccc(O)cc1)C(=O)N[C@@H](CC(=O)O)C(=O)N[C@@H](Cc1ccccc1)C(=O)O [YDF] (H-Tyr-Asp-Phe-OH; N-terminus and C-terminus assumed)
LD50 mM ± S.E.M. (Aedes aegypti larvae [1]): 0.97 ± 0.11 mM

N[C@@H](Cc1ccc(O)cc1)C(=O)N[C@@H](CC(=O)O)C(=O)NCC(=O)O [YDG] (H-Tyr-Asp-Gly-OH; N-terminus and C-terminus assumed)
LD50 mM ± S.E.M. (Aedes aegypti larvae [1]): 0.95 ± 0.11 mM

N=C(N)NCCC[C@H](NC(=O)[C@@H]1CCCN1C(=O)[C@H](CC(=O)O)NC(=O)[C@@H](N)Cc1ccc(O)cc1)C(=O)O [YDPR] (H-YDPR-OH; N-terminus and C-terminus assumed)
LC50 (Aedes aegypti larvae [2]): 0.24 ± 0.026 mM

N[C@@H](Cc1ccc(O)cc1)C(=O)N[C@@H](CC(=O)O)C(=O)N1CCC[C@H]1C(=O)O [YDP] (H-Tyr-Asp-Pro-OH; N-terminus and C-terminus assumed)
LD50 mM ± S.E.M. (Aedes aegypti larvae [1]): 2.3 ± 0.4 mM

N[C@@H](Cc1ccc(O)cc1)C(=O)N[C@@H](CC(=O)O)C(=O)O [YD] (H-Tyr-Asp-OH; N-terminus and C-terminus assumed)
LD50 mM ± S.E.M. (Aedes aegypti larvae [1]): 1.24 ± 0.06 mM

N[C@@H](Cc1ccc(O)cc1)C(=O)N[C@@H](CO)C(=O)N[C@@H](Cc1ccccc1)C(=O)O [YSF] (H-Tyr-Ser-Phe-OH; N-terminus and C-terminus assumed)
LD50 mM ± S.E.M. (Aedes aegypti larvae [1]): 1.08 ± 0.12 mM

ADPAP [ADPAP]
LD50 mM ± S.E.M. (Aedes aegypti larvae [1]): 2.0 ± 0.36 mM

DPARDPARDPARDPAR [(DPAR)4]
LC50 (Aedes aegypti larvae [2]): 0.048 ± 0.002 mM
Inhibition (% ± S.E.M.) of trypsin biosynthesis (trypsin biosynthesis; 0.5 μg/injection): 3 ± 0.3%
Inhibition (% ± S.E.M.) of trypsin biosynthesis (trypsin biosynthesis; 1 μg/injection): 35 ± 7%
Inhibition (% ± S.E.M.) of trypsin biosynthesis (trypsin biosynthesis; 10 μg/injection): 58 ± 36%

FDPAP [FDPAP]
LD50 mM ± S.E.M. (Aedes aegypti larvae [1]): 0.37 ± 0.15 mM

MPDYPPPPP [MPDYP5]
LD50 mM ± S.E.M. (Aedes aegypti larvae [1]): >3.0 mM

YAPAP [YAPAP]
LD50 mM ± S.E.M. (Aedes aegypti larvae [1]): 0.54 ± 0.13 mM

YDAAP [YDAAP]
LD50 mM ± S.E.M. (Aedes aegypti larvae [1]): 1.0 ± 0.18 mM

YDFAP [YDFAP]
LD50 mM ± S.E.M. (Aedes aegypti larvae [1]): 0.74 ± 0.13 mM

YDLAP [YDLAP]
LD50 mM ± S.E.M. (Aedes aegypti larvae [1]): 0.6 ± 0.05 mM

YDPAA [YDPAA]
LD50 mM ± S.E.M. (Aedes aegypti larvae [1]): 1.6 ± 0.13 mM

YDPAF [YDPAF]
LD50 mM ± S.E.M. (Aedes aegypti larvae [1]): 0.33 ± 0.2 mM

YDPAFR [YDPAFR]
LC50 (Aedes aegypti larvae [2]): 0.15 ± 0.023 mM
Inhibition (% ± S.E.M.) of trypsin biosynthesis (trypsin biosynthesis; 10 μg/injection): 0 ± 0%

YDPAL [YDPAL]
LD50 mM ± S.E.M. (Aedes aegypti larvae [1]): 0.52 ± 0.03 mM

YDPAP [YDPAP, reference compound]
LD50 mM ± S.E.M. (Aedes aegypti larvae [1]): 1.64 ± 0.03 mM

YDPAPPPPPPR [YDPAP6R]
LC50 (Aedes aegypti larvae [2]): > 71.6 mM

YDPFP [YDPFP]
LD50 mM ± S.E.M. (Aedes aegypti larvae [1]): 1.7 ± 0.4 mM

YDPGP [YDPGP]
LD50 mM ± S.E.M. (Aedes aegypti larvae [1]): 1.1 ± 0.18 mM

YDPLP [YDPLP]
LD50 mM ± S.E.M. (Aedes aegypti larvae [1]): 1.5 ± 0.04 mM

YEPAP [YEPAP]
LD50 mM ± S.E.M. (Aedes aegypti larvae [1]): 0.35 ± 0.02 mM

YFPAP [YFPAP]
LD50 mM ± S.E.M. (Aedes aegypti larvae [1]): 0.64 ± 0.03 mM

YNPAP [YNPAP]
LD50 mM ± S.E.M. (Aedes aegypti larvae [1]): 0.55 ± 0.03 mM

YSPAP [YSPAP]
LD50 mM ± S.E.M. (Aedes aegypti larvae [1]): 1.4 ± 0.03 mM
